# Target: Induced myeloid leukemia cell differentiation protein Mcl-1 (Homo sapiens, UniProt Q07820)
# Experiment: modulators of Bim peptide binding to Mcl-1, dose response, biochemical, bead-based flow cytometry, multiplexed, human (AID 1329)
# Settings: not given
# Sequence of Induced myeloid leukemia cell differentiation protein Mcl-1 (Q07820 whole entry): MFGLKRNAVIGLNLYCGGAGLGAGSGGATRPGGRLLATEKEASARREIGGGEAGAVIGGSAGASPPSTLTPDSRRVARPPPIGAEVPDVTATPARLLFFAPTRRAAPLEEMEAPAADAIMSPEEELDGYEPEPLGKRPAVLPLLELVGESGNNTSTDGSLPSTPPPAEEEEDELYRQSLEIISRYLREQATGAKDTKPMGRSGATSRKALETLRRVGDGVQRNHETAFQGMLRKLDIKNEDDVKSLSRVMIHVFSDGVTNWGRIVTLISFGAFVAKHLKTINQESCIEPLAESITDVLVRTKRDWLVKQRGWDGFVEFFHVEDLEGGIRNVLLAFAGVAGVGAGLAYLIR
row,EC50 [µM],SMILES
1,38.6,CN1CCc2cccc3c2[C@@H]1Cc1ccc(O)c(O)c1-3
2,19.3,CCC(/C=C1\Sc2ccc(OC)cc2N1CCO)=C\c1sc2ccc(OC)cc2[n+]1CCO
3,0.39,Cc1nc2ncccn2c1-c1csc(Nc2ccc(O)cc2)n1
4,5.05,"COc1cc(CN=Nc2nn3cnnc3c3ccccc23)ccc1O [(4E)-2-methoxy-4-[[2-([1,2,4]triazolo[3,4-a]phthalazin-6-yl)hydrazinyl]methylidene]cyclohexa-2,5-dien-1-one]"
5,29,"COc1cccc2c(SCC(=O)NN=Cc3ccc(O)cc3O)cc(C)nc12 [N'-[(E)-(2-hydroxy-4-oxo-1-cyclohexa-2,5-dienylidene)methyl]-2-[(8-methoxy-2-methyl-4-quinolinyl)thio]acetohydrazide]"
6,11.4,"COc1cc(C=NNC(=O)CN(Cc2ccco2)S(=O)(=O)c2ccccc2)ccc1O [N-(2-furanylmethyl)-N-[2-[[(E)-(3-methoxy-4-oxo-1-cyclohexa-2,5-dienylidene)methyl]hydrazo]-2-oxoethyl]benzenesulfonamide]"
7,6,Nc1c(C(=O)NCC2CCCO2)sc2nc3c(c(-c4ccco4)c12)CC/C3=C\c1ccco1 (stereo unspecified) [SMR000259502]
8,5.86,Nc1c(C(=O)NC2CC2)sc2nc3c(c(-c4ccco4)c12)CC/C3=C/c1ccco1 [SMR000259554]
9,5.76,Cc1nnc2ccc(-c3cccc(NC(=O)c4ccco4)c3)nn12 [SMR000324305]
10,41.2,CCN1/C(=C/C(C)=C/c2sc3ccccc3[n+]2CC)Sc2ccccc21 [SMR000354813]

row,SMILES,EC50 [µM]
1,c1ccc(-c2nc(N3CCOCC3)[s+]n2-c2ccccc2)cc1,9.74
2,Cc1ccc(-c2nc(N3CCOCC3)s[n+]2-c2ccccc2)cc1 [SMR000225370],2.04

# Same assay, conditions: inactive by the depositor's call
row,EC50 [µM],SMILES
1,2.54,CCOCCCNc1nc(S)nc2cc(OC)c(OC)cc12
2,4.54,COCCNc1[nH]c(=S)nc2cc(OC)c(OC)cc12
3,0.7,CN1CCN(C2=C(Cl)C(=O)C(c3cnc(N4CCCCC4)s3)=C(Cl)C2=O)CC1
4,4.52,CCOC(=O)c1ccc(Nc2nc(C(=O)OCC)nc3ccccc23)cc1
5,15.8,CCN1C(=O)/C(=C/C=C2\C=CN(CC)c3ccccc32)SC1=S
6,13.2,Cc1ccc(-c2ccc(/C=C/C(=O)c3ccccc3)o2)cc1
7,20.9,O=S1(=O)N=C(N(CCO)N=C/C=C/c2ccccc2)c2ccccc21
8,26.9,COc1ccc(-n2c(=O)c3ccccc3c3ccccc3c2=O)c(OC)c1
9,6.14,COc1cc2nc(=S)n(CCCN3CCOCC3)c(N)c2cc1OC
10,3.71,CN(C)c1ncc(C2=C(Cl)C(=O)C(N3CCCC3)=C(Cl)C2=O)s1
11,10.9,O=C(Nc1ccc2nc(-c3ccco3)c(-c3ccco3)nc2c1)N1CCN(c2ccccn2)CC1
12,45.4,O=C(c1ccccc1)c1ccc2nc(-c3ccco3)c(-c3ccco3)nc2c1
13,7.11,"COCCNC(=S)Nc1cc(OC)c(OC)cc1C#N [1-(2-cyano-4,5-dimethoxy-phenyl)-3-(2-methoxyethyl)thiourea]"
14,2.61,Cc1ccc(C(=O)/C=C/c2ccc(-c3ccc(C)cc3)o2)cc1 [1-p-Tolyl-3-(5-p-tolyl-furan-2-yl)-propenone]
15,7.82,"O=C(NCc1ccccc1)c1ccc2nc(-c3ccco3)c(-c3ccco3)nc2c1 [2,3-bis(furan-2-yl)-N-(phenylmethyl)quinoxaline-6-carboxamide]"
16,39.6,"O=C(Nc1ccccc1)c1ccc2nc(-c3ccco3)c(-c3ccco3)nc2c1 [2,3-di-2-furyl-N-phenyl-6-quinoxalinecarboxamide]"
17,11.8,"O=C(CSc1ccc2nnc(-c3ccccn3)n2n1)Nc1nccs1 [2-[[3-(2-pyridinyl)-[1,2,4]triazolo[4,3-b]pyridazin-6-yl]thio]-N-(2-thiazolyl)acetamide]"
18,19.4,"O=C(/C=C/c1ccccc1Cl)c1ccccc(=O)c1O [3-[(E)-3-(2-chlorophenyl)prop-2-enoyl]-2-oxidanyl-cyclohepta-2,4,6-trien-1-one]"
19,8.97,"Cc1nc2ncccn2c1-c1csc(Nc2ccccc2)n1 [4-(2-methyl-3-imidazo[1,2-a]pyrimidinyl)-N-phenyl-2-thiazolamine]"
20,5.92,"Cc1cc(C)nc(SCc2cc(=O)c(OC(=O)c3ccc(Cl)c([N+](=O)[O-])c3)co2)n1 [4-chloro-3-nitrobenzoic acid [6-[[(4,6-dimethyl-2-pyrimidinyl)thio]methyl]-4-oxo-3-pyranyl] ester]"
21,1.9,"COc1cc2nc(=S)[nH]c(NCC3CCCO3)c2cc1OC (stereo unspecified) [6,7-dimethoxy-4-(2-oxolanylmethylamino)-1H-quinazoline-2-thione]"
22,2.94,"COc1ccc(C2=Nn3c(nnc3-c3ccco3)SC2)cc1OC [6-(3,4-Dimethoxy-phenyl)-3-furan-2-yl-7H-[1,2,4]triazolo[3,4-b][1,3,4]thiadiazine]"
23,5.53,"CN(N=C/C=C/c1ccccc1)C1=NS(=O)(=O)c2ccccc21 [(1E,2E)-3-phenylacrylaldehyde (1,1-dioxido-1,2-benzisothiazol-3-yl)(methyl)hydrazone]"
24,2.14,"O=C1/C(=C\c2ccc(-c3ccccc3Cl)o2)SC(=S)N1CC1CCCO1 (stereo unspecified) [(5E)-5-[[5-(2-chlorophenyl)furan-2-yl]methylidene]-3-(oxolan-2-ylmethyl)-2-sulfanylidene-1,3-thiazolidin-4-one]"

row,EC50 [µM],SMILES
1,20.7,O=C(/C=C\c1ccc(-c2ccccc2)o1)c1ccccc1 [(Z)-1-phenyl-3-(5-phenyl-2-furanyl)-2-propen-1-one]
2,9.39,Cc1cc(-c2nnc3n2N=C(c2ccc(-c4ccccc4)cc2)CS3)[nH]n1 [MLS000082991]
3,21,Cc1cc2n(c1)CCn1c(C)ccc1-2 [MLS000104384]
4,16.9,Clc1nc(NCc2cccnc2)nc(N2CCOCC2)n1 [MLS000121154]
5,1.04,CCCCNc1[nH]c(=S)nc2cc(OC)c(OC)cc12 [MLS000520261]
6,0.36,COc1cc2nc(=S)[nH]c(NCCc3ccc(S(N)(=O)=O)cc3)c2cc1OC [MLS000674601]
7,16,COc1ccc(C)cc1-n1c(=O)c2ccccc2c2ccccc2c1=O [MLS000682999]
8,10.5,Fc1ccc(C2=Nc3cccc4cccc(c34)N2)cc1 [MLS000687139]
9,39.5,Cc1ccnc(SCc2cc(=O)c(OC(=O)c3ccc(Cl)c([N+](=O)[O-])c3)co2)n1 [MLS000696790]
10,33.2,COc1ccc(/C=C/C(=O)c2cc(Br)ccc(=O)c2O)cc1 [MLS000702099]
11,9.29,CCOC(=O)c1c(O)nc2ccc(Cl)c3c2c1-c1ccccc1C3=O [MLS000704595]
12,12.2,"c1ccc(Nc2cccc(Nc3ccccc3)n2)cc1 [N,N'-diphenyl-2,6-pyridinediamine]"
13,7.78,Cc1cccc(OCC(=O)NCC(=O)NN=Cc2cc(Br)ccc2OCc2ccccc2)c1 [N-[(5-bromanyl-2-phenylmethoxy-phenyl)methylideneamino]-2-[2-(3-methylphenoxy)ethanoylamino]ethanamide]
14,1.74,COCCCNc1nc(S)nc2cc(OC)c(OC)cc12 [SMR000026607]
15,1.75,Cc1cc2nn(-c3cccc4ccccc34)nc2cc1N [SMR000076237]
16,16.3,C#CCn1cc(C=C2C(=O)c3ccccc3C2=O)c2ccccc21 [SMR000196125]
17,20.6,CN(N=Cc1cccnc1)C1=NS(=O)(=O)c2ccccc21 [SMR000207578]
18,5.71,Cc1ccc(C=NNC(=O)CSc2nnc(-c3ccc(Cl)cc3)n2-c2ccccc2)o1 [SMR000218122]
19,16.7,COc1ccc(OC)c(-n2c(=O)c3ccccc3c3ccccc3c2=O)c1 [SMR000236434]
20,69.7,O=C1c2ccccc2-c2onc3ccc(N4CCCC4)c1c23 [SMR000279741]
21,16.7,"Cc1ccnc(Nc2nc(-c3c(C)nc4sccn34)cs2)c1 [[4-(6-Methyl-imidazo[2,1-b]thiazol-5-yl)-thiazol-2-yl]-(4-methyl-pyridin-2-yl)-amine]"
22,14.7,CCOC(=O)c1nc(Nc2ccc(C(=O)OC)cc2)c2ccccc2n1 [ethyl 4-(4-methoxycarbonylanilino)quinazoline-2-carboxylate]
23,2.74,"CN(N=Cc1ccncc1)C1=NS(=O)(=O)c2ccccc21 [isonicotinaldehyde (1,1-dioxido-1,2-benzisothiazol-3-yl)(methyl)hydrazone]"

row,SMILES,EC50 [µM]
1,CCOCCCn1c(N)c(C(=O)Nc2sc3c(c2C(=O)OC)CCCC3)c2nc3ccccc3nc21,1.85
2,COCCCn1c(N)c(C(=O)Nc2sc3c(c2C(=O)OC)CCCC3)c2nc3ccccc3nc21 [MLS000595323],3.12

# Reference: BindingDB's records for doi:10.7270/Q2697202 (Nmmlsc, 2008)
